In US9079863B2, “Crystalline forms for 5-amino-2,3-dihydrophthalazine-1,4-dione sodium salt, pharmaceutical preparations containing the same and method for the production of said forms” (METRIOPHARM AG, priority 2010, dated 2015):
Counter-ions that a name gives are not always drawn. Like-named read-outs stand apart in the source and are kept apart here.

Assays:
[1] = for Endothermous solid phase transformation: 30-300° C. under helium; for Endothermous solid phase transformation / Disintegration temperature: sodium salt; for Disintegration temperature: 30-500° C. in synthetic air (4 N2: 1 O2)
Description: (Table 5). The solid phase transformation of the dihydrate according to U.S. Pat. No. 6,483,326 B1 was measured by means of the simultaneous thermogravimetry-differential thermal analysis with a Linseis L81-077 coupled with mass spectroscopy measurement with a Netzsch STA 449 C thermobalance, with MS and FTIR coupling at 30-300° C. under helium. The disintegration temperatures of forms I-II were determined with the same device at 30-500° C. in synthetic air (4 N2: 1 O2). The data were analyzed with the factory-set software Proteus.

physchem = conditions: in water at room temperature, saturated solution
Description: Further, the solubility of the crystalline forms in a saturated solution was determined.

[2] = tested on: isolated mouse macrophages
Description: For this purpose, the macrophages were first treated with form I (20 or 200 μg/mL). After 1 hour the treated macrophages were stimulated with LPS (10, 100 or 1,000 ng/mL). The supernatants were collected 24 h later, and the concentration of TNF-alpha and IL-6 was measured. Not stimulated macrophages, not stimulated macrophages treated with 200 μg/mL form I and LPS-stimulated macrophages (10, 100 or 1,000 ng/mL LPS) were used as controls.

[3] = not infected mice; for Weight development/increase MW: over two days
Description: (§1) In a mouse model of the Gram-positive sepsis (infection with S. pyogenes) the therapeutic usability of the crystal forms I and II of the 5-amino-2,3-dihydrophthalazine-1,4-dione sodium salt was tested. The administration of active ingredient was made parenterally 6 hours after the infection occurred. A second administration of active ingredient was made 24 hours after the first application. The test was completed 48 hours after the infection. For both forms (substance groups) three different doses were used. The mice obtained 2, 20 or 200 μg each of form I or form II per animal and application.
(§2) The individual treatment groups comprised 5 animals each, and for the not infected controls two repetitions and for the infected controls and that groups that contained form II four repetitions were made, so that in total 180 animals were in the test.
It is known that the toxicity of substances in an animal test with growing-up mice or rate can influence the weight development.

S. pyogenes [4] = conditions: for Weight development/increase Total MW / Weight development/increase Day 1 MW: infected mice, sodium salt; for Weight development/increase Total MW: complete test time 48 h, survivors
Description: as §1, §2
In the sepsis model described in Example 3, the influence of crystal forms I and II of the 5-amino-2,3-dihydrophthalazine-1,4-dione sodium salt on the weight development of mice infected with S. pyogenes was tested. The development of the body weight during an acute infection may supply important predictive information.

S. pyogenes [5] = conditions: 48 hours after the infection
Description: as §1, §2
In the sepsis model described in Example 3, the influence the crystal forms II and I of the 5-amino-2,3-dihydrophthalazine-1,4-dione sodium, salt on the probability of survival of the mice infected with S. pyogenes was tested.

S. pyogenes [6] = conditions: for Germ load (CFU) Blood MW / Germ load (CFU) Liver MW: 48 hours after the infection, sodium salt
Description: as §1, §2
In the sepsis model described in Example 3, the influence of crystal forms II and I of the 5-amino-2,3-dihydrophthalazine-1,4-dione sodium salt on the germ load of the mice infected with S. pyogenes in blood and liver was tested. The test was completed 48 hours after the infection, and the germ load (CFU) existing at this time in blood and liver was determined (see Table).

[7] = healthy mice
Description: as §1
Blood taking occurred after 48 hours at the end of the second application day.

[8] = healthy mice, end of the second application day
Description: When administering form I and form II to healthy mice, it was investigated, whether and which influence the application has on certain liver enzymes, in particular the transaminases GOT (AST) and GPT (ALT). Blood taking occurred at the end of the second application day.

[9] = 0.25 g in 10 mL H2O VE, stirring 500 rpm, 25° C., first minutes after addition; sodium salt
Description: The complete dissolution of 0.25 g form I or form II, respectively, in 10 mL H2O VE was achieved under stirring (500 rpm) at 25° C.

[10] = 200 μg/mL, not stimulated macrophages (no LPS)
[11] = dose 20 μg, LPS 10 ng/mL, supernatant 24 h
[12] = dose 20 μg, LPS 100 ng/mL, supernatant 24 h
[13] = dose 20 μg, LPS 1 mg/mL, supernatant 24 h
[14] = dose 200 μg, LPS 10 ng/mL, supernatant 24 h
[15] = dose 200 μg, LPS 100 ng/mL, supernatant 24 h
[16] = dose 200 μg, LPS 1 mg/mL, supernatant 24 h

## Nc1cccc2c(=O)[nH][nH]c(=O)c12 [Dihydrate, 5-amino-2,3-dihydrophthalazine-1,4-dione sodium salt]
[1]; listed as dihydrate
  Endothermous solid phase transformation: 85 °C
[1]
  Endothermous solid phase transformation: 85 °C ± 10 °C
physchem; sodium salt
  Solubility: 168 mg/mL

## Nc1cccc2c(=O)[nH][nH]c(=O)c12 [Form I, 5-amino-2,3-dihydrophthalazine-1,4-dione sodium salt]
[1]; listed as form I
  Disintegration temperature: 335 °C
[1]
  Disintegration temperature: 335 °C ± 10 °C
[1]; room temperature (25° C.) and 40° C.
  Time for which the crystalline form is stable: at least two
physchem; water, thermodynamic from solid, Solubility
  Solubility: 227 mg/mL
[2]; 100 ng/5 mL LPS, 200 μg/mL
  Immunodepressive effect: most distinct
[2]; 1 μg/mL LPS with 200 μg/mL
  Change of TNF-alpha values: significant reduction
[2]; 200 μg/mL, not stimulated
  Effect on not stimulated macrophages by TNF-alpha values: immunostimulating effect
[2]; [10]
  IL-6 MW: 0.24 ng/mL
  TNF-alpha MW: 7.98 ng/mL
[2]; all LPS groups
  Effect in the combination groups with LPS: dose-dependent, immunodepressive effect
[2]; [11]
  IL-6 MW: 6.05 ng/mL
  TNF-alpha MW: 13.27 ng/mL
[2]; [12]
  IL-6 MW: 19.67 ng/mL
  TNF-alpha MW: 27.17 ng/mL
[2]; [13]
  IL-6 MW: 22.67 ng/mL
  TNF-alpha MW: 47.91 ng/mL
[2]; [14]
  IL-6 MW: 7.19 ng/mL
  TNF-alpha MW: 20.74 ng/mL
[2]; [15]
  IL-6 MW: 10.88 ng/mL
  TNF-alpha MW: 16.47 ng/mL
[2]; [16]
  IL-6 MW: 15.95 ng/mL
  TNF-alpha MW: 32.53 ng/mL
[3]
  Toxicity judged from weight development: do not have any toxicity or at most a very small one
[3]; 2 μg per animal and application, parenteral, sodium salt
  Weight development/increase MW: -0.49 g
[3]; 20 μg per animal and application, parenteral, sodium salt
  Weight development/increase MW: 1.48 g
[3]; 200 μg per animal and application, parenteral, sodium salt
  Weight development/increase MW: 0.79 g
[3]; all doses (total)
  Weight development/increase MW: 0.59 g
S. pyogenes [4]; first 24 hours after the infection
  Weight loss compared to control groups: lower weight losses
S. pyogenes [4]; 2 μg
  Weight development/increase Total MW: -2.41 g
  Weight development/increase Day 1 MW: -0.64 g
S. pyogenes [4]; 20 μg
  Weight development/increase Total MW: -1.46 g
  Weight development/increase Day 1 MW: -0.09 g
S. pyogenes [4]; 200 μg
  Weight development/increase Total MW: -1.69 g
  Weight development/increase Day 1 MW: -0.03 g
S. pyogenes [4]; all doses (total)
  Weight development/increase Total MW: -1.85 g
  Weight development/increase Day 1 MW: -0.25 g
S. pyogenes [5]; 2 μg, sodium salt
  Share of surviving mice: 80%
S. pyogenes [5]; 20 μg
  Share of surviving mice: 80%
S. pyogenes [5]; 200 μg, sodium salt
  Share of surviving mice: 80%
S. pyogenes [5]
  Survival compared to the controls: increase of the share of surviving animals
S. pyogenes [5]; all doses (total)
  Share of surviving mice: 80%
S. pyogenes [6]; 2 μg
  Germ load (CFU) Blood MW: 7.00 log/mL
  Germ load (CFU) Liver MW: 6.56 log/g
S. pyogenes [6]; 20 μg
  Germ load (CFU) Blood MW: 6.33 log/mL
  Germ load (CFU) Liver MW: 6.57 log/g
S. pyogenes [6]; 200 μg
  Germ load (CFU) Blood MW: 5.77 log/mL
  Germ load (CFU) Liver MW: 6.09 log/g
S. pyogenes [6]; all doses (total)
  Germ load (CFU) Blood MW: 6.37 log/mL
  Germ load (CFU) Liver MW: 6.41 log/g
S. pyogenes [6]; highest dose
  Germ count in the blood compared to the controls: tendentious germ count reduction
[7]; 2 μg, blood after 48 hours, sodium salt
  TNF-alpha MW: 128.8 pg/mL
[7]; 20 μg dose, p<0.001
  TNF-alpha versus control groups and form II groups: significantly different
[7]; 20 μg, blood after 48 hours, sodium salt
  TNF-alpha MW: 341.8 pg/mL
[7]; 200 μg, blood after 48 hours, sodium salt
  TNF-alpha MW: 154.1 pg/mL
[7]; all doses (total), blood after 48 hours, sodium salt
  TNF-alpha MW: 208.2 pg/mL
[7]; blood after 48 hours
  IL-6 increase: neither in the substance groups nor in the control groups increases could be found
[7]; compared to the other groups, sodium salt
  TNF-alpha increase: distinct increases
[8]
  Transaminases GOT (AST) and GPT (ALT): Distinct differences between the groups could not be found
[9]
  Initial dissolution rate: only retarded reaches its complete equilibrium concentration
